In patent publication US20260130928A1, “COMBINATION OF AKR1C3 ACTIVATED ANTICANCER PRODRUG COMPOUND AND ANALGESIC DRUG FOR TREATING CANCER PATIENTS ACCOMPANIED BY PAIN” (ASCENTAWITS PHARMACEUTICALS, LTD., priority 2022, published 2026):
Where two headings read alike, the source gives them in different places.

Key:
[1] = system: AKR1C3; conditions: reported in literature; cited from earlier work
[2] = system: H460 cell line; assay: In vitro cell proliferation inhibition with the drug combination (CTG method); format: cell-based, human; conditions: combined with AST-3424
Procedure: • a) H460 cells (human non-small lung cancer cells, AKR1C3 enzyme highly expressed) were cultured in RPMI-1640 medium, added with 10% FBS and 1% double antibody, and placed at 37° C. and 5% CO2 for culturing.
• a) The cells were routinely cultured until the cell saturation was 80%-90%, and when the required quantity was reached, the cells were collected. • b) The cells were resuspended with the corresponding medium and cell counts were performed to prepare a cell suspension with appropriate density. • c) The cell suspension was added to a 96-well plate with 100 μL per well, and the cell density was 2,000 cells per well. • d) The cells were incubated overnight in an incubator at 37° C. with 5% CO2. 1.1.3 Treating Cells with Compound (72 Hours)
AST-3424 alone: after 24 hours of cell seeding, AST-3424 was administered alone. Specifically, each well was supplemented with 99 μL of growth medium, and then added with 1 μL of the prepared AST-3424 solution to form different concentrations of AST-3424. The plate was shaken gently to ensure uniform mixing, and placed in an incubator at 37° C. with 5% CO2.
The cell plates were placed in the incubator for 72 hours.
1.1.4 Treating Cells with Compound (2 Hours) • a) Administrating single drug: after 24 hours of cell seeding, AST-3424 was administered alone. Specifically, each well was supplemented with 99 μL of growth medium, and then added with 1 μL of the prepared AST-3424 solution to form different concentrations of AST-3424. The plate was shaken gently to ensure uniform mixing, and placed in the incubator for 2 hours. […] The plate was shaken gently to ensure uniform mixing. After the plate was placed in the incubator for 2 hours, 1 μL of the prepared AST-3424 solution was added to form different concentrations of AST-3424. The plate was shaken gently to ensure uniform mixing, and placed in the incubator at 37° C. with 5% CO2 for another 2 hours. Then, the supernatant was discarded, and the remainder was washed twice with growth medium and added with 200 μL of fresh medium.
1.1.6 Detecting with CTG Method • a) The cell plate to be tested was placed at room temperature to equilibrium for 30 minutes, and 100 μL of culture medium was discarded from each well. • b) 25 μL CTG reagent (CelltiterGlo kit) was added to each well. The plate was placed on a fast shaker to shake for 2 minutes, and then placed at room temperature away from light for 30 minutes. • c) The chemiluminescent signal value was read with multifunctional microplate reader at reading time of 1000 ms.
IC50 was calculated with GraphPad Prism 5 software, and the IC50 (half maximal inhibitory concentration) of the compound was obtained using the following nonlinear fitting formula: […]

[3] = system: H460 cell line; assay: Cell proliferation inhibition by combining Naproxen or TH-3021 and AST-3424 in different sequence of administration (CTG); format: cell-based, human; conditions: for effect of subsequent addition on the efficacy of AST-3424: Group 3: added after 2 h AST-3424 pretreatment and washing
Procedure: The following are the different treatment methods. […] The plate was shaken gently to ensure uniform mixing, and placed in the incubator for 2 hours. […] The plate was shaken gently to ensure uniform mixing, and placed in the incubator for 2 hours. Subsequently, the plate was washed to remove the compound, and placed in the incubator at 37° C. with 5% CO2 for further 72 hours. […] The plate was shaken gently to ensure uniform mixing, and placed in the incubator for 2 hours. Subsequently, the plate was washed to remove the compounds, and placed in the incubator at 37° C. with 5% CO2 for 72 hours. […] The plate was shaken gently to ensure uniform mixing, and placed in the incubator for 2 hours. […] The plate was shaken gently to ensure uniform mixing, and placed in the incubator for 2 hours. Subsequently, the plate was washed to remove the compounds, and placed in the incubator at 37° C. with 5% CO2 for further 72 hours. […] The plate was shaken gently to ensure uniform mixing, and placed in the incubator for 2 hours. […] The plate was shaken gently to ensure uniform mixing, and placed in the incubator for 2 hours. Subsequently, the plate was washed to remove the compounds, and placed in the incubator at 37° C. with 5% CO2 for further 72 hours. b) Administrating single drug: after 24 hours of cell seeding, the compound was administered alone. […] The plate was shaken gently to ensure uniform mixing, and placed in the incubator at 37° C. with 5% CO2 for 2 hours. Subsequently, the compound was washed off, and each well was added with fresh medium. The plate was placed in the incubator at 37° C. with 5% CO2 for further 72 hours.

[4] = cited from earlier work; for AUC0-t / Cmax / T1/2 / Tmax: patients, mean
[5] = OBI-3424 dose level 1 mg/m^2, infusion
[6] = OBI-3424 dose level 2 mg/m^2, infusion
[7] = OBI-3424 dose level 4 mg/m^2, infusion
[8] = OBI-3424 dose level 6 mg/m^2, infusion
[9] = OBI-3424 dose level 8 mg/m^2, infusion
[10] = OBI-3424 dose level 10 mg/m^2, infusion
[11] = OBI-3424 dose level 12 mg/m^2, infusion
[12] = OBI-3424 dose level 14 mg/m^2, infusion

## CC(=O)Oc1ccccc1C(=O)O [Aspirin]
[1]
  AKR1C3 inhibitory activity: have AKR1C3 inhibitory activity

## O=C(O)Cc1ccccc1Nc1c(Cl)cccc1Cl [Diclofenac]
[1]
  AKR1C3 inhibitory activity: have AKR1C3 inhibitory activity

## CC(C(=O)O)c1cccc(Oc2ccccc2)c1 (stereo not shown) [Fenoprofen]
[1]
  AKR1C3 inhibitory activity: have AKR1C3 inhibitory activity

## CC(C(=O)O)c1ccc(-c2ccccc2)c(F)c1 (stereo not shown) [Flurbiprofen]
[1]
  AKR1C3 inhibitory activity: have AKR1C3 inhibitory activity

## COc1ccc2c(c1)c(CC(=O)O)c(C)n2C(=O)c1ccc(Cl)cc1 [Indomethacin]
[1]
  AKR1C3 inhibitory activity: has AKR1C3 inhibitory activity

## Cc1ccc(Cl)c(Nc2ccccc2C(=O)O)c1Cl [Meclofenamic Acid]
[1]
  AKR1C3 inhibitory activity: have AKR1C3 inhibitory activity

## Cc1cccc(Nc2ccccc2C(=O)O)c1C [Mefenamic acid]
[1]
  AKR1C3 inhibitory activity: have AKR1C3 inhibitory activity

## COc1ccc2cc([C@H](C)C(=O)O)ccc2c1 [Naproxen, reference compound]
[2]
  effect of the combination on the cell proliferation inhibitory activity of AST-3424: significantly affect
[3]
  effect of subsequent addition on the efficacy of AST-3424: no longer affected the efficacy of AST-3424
[1]
  AKR1C3 inhibitory activity: have AKR1C3 inhibitory activity

## O=P(O)(N1CC1)N1CC1 [OBI-2660]
[4]; [5]
  AUC0-t: 7.30 ng·h/mL
  Cmax: 1.70 ng/mL
  T1/2: 3.08 h
  Tmax: 1.75 h
[4]; [6]
  AUC0-t: 10.00 ng·h/mL
  Cmax: 2.30 ng/mL
  T1/2: 2.48 h
  Tmax: 1.67 h
[4]; [7]
  AUC0-t: 19.30 ng·h/mL
  Cmax: 5.00 ng/mL
  T1/2: 2.00 h
  Tmax: 1.33 h
[4]; [8]
  AUC0-t: 27.40 ng·h/mL
  Cmax: 6.80 ng/mL
  T1/2: 2.09 h
  Tmax: 1.75 h
[4]; [9]
  AUC0-t: 32.80 ng·h/mL
  Cmax: 8.50 ng/mL
  T1/2: 1.87 h
  Tmax: 1.44 h
[4]; [10]
  AUC0-t: 29.20 ng·h/mL
  Cmax: 10.10 ng/mL
  T1/2: 2.99 h
  Tmax: 1.67 h
[4]; [11]
  AUC0-t: 56.60 ng·h/mL
  Cmax: 13.10 ng/mL
  T1/2: 2.41 h
  Tmax: 1.53 h
[4]; [12]
  AUC0-t: 45.60 ng·h/mL
  Cmax: 11.20 ng/mL
  T1/2: 2.46 h
  Tmax: 1.75 h
[4]; between the two doses (Cycle 1 Day1 and Cycle 1 Day8)
  accumulation of exposure (Cmax and AUC): no accumulation of exposure

## CC(=O)Nc1ccc(O)cc1 [Paracetamol]
[1]
  AKR1C3 inhibitory activity: have AKR1C3 inhibitory activity

## O=C([O-])c1ccccc1O.[Na+] [Sodium salicylate]
[1]
  AKR1C3 inhibitory activity: have AKR1C3 inhibitory activity

## CC1=C(CC(=O)O)c2cc(F)ccc2/C1=C\c1ccc([S+](C)[O-])cc1 (stereo not shown) [Sulindac]
[1]
  AKR1C3 inhibitory activity: have AKR1C3 inhibitory activity

## O=C(N1CCOCC1)N1CCN(c2ccc(Cl)cc2Cl)CC1 [TH-3021, reference compound]
[3]
  effect of subsequent addition on the efficacy of AST-3424: no longer affected the efficacy of AST-3424
[3]; group 1 (TH-3021 pretreatment, washed off)
  difference in IC50 values of AST-3424 (fold): 6 fold
[3]; groups 2 and 4 (TH-3021 present together with AST-3424)
  difference in IC50 values of AST-3424 (fold): 200 fold
[1]
  AKR1C3 inhibitory activity: specific inhibitor of AKR1C3

## Cc1ccc(C(=O)c2ccc(CC(=O)O)n2C)cc1 [Tolmetin]
[1]
  AKR1C3 inhibitory activity: have AKR1C3 inhibitory activity

## Cc1cc(CC(=O)O)n(C)c1C(=O)c1ccc(Cl)cc1 [Zomepirac]
[1]
  AKR1C3 inhibitory activity: have AKR1C3 inhibitory activity
